This is an account of results in BindingDB's records for doi:10.1021/jm0506625 (Washington University, 2005).

One experiment addresses T1, Caspase-3 (Homo sapiens, UniProt P42574).
T1 sequence (P42574 whole entry): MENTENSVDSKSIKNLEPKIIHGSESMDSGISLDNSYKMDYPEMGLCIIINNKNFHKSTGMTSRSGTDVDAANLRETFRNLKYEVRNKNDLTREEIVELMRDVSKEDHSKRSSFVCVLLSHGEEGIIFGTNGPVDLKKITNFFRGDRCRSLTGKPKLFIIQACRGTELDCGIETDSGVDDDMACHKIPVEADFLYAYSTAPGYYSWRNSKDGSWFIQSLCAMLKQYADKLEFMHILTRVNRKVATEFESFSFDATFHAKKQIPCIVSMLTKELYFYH
Put plainly: Caspase Inhibition Assay. Here is the method: (§1) The substrate peptides terminating in AMC are processed by caspases with or without inhibitors. […] Compounds were tested in duplicate, and IC50 curves were calculated for all inhibitors. Final IC50s were the average of three independent experiments.

Another experiment deals with Caspase-8 (Homo sapiens, UniProt Q14790). Put plainly: Caspase Inhibition Assay. The protocol:
as §1

Where a SMILES comes first, the peptide text is derived from it. [ ]: non-standard residue; d: D form. ξ: configuration not given here. Ile(3ξ) = CCC(C)[C@H](N)C(=O)O; Thr(3ξ) = CC(O)[C@H](N)C(=O)O

Sequence of Caspase-8 (Q14790 217-374 limits assumed): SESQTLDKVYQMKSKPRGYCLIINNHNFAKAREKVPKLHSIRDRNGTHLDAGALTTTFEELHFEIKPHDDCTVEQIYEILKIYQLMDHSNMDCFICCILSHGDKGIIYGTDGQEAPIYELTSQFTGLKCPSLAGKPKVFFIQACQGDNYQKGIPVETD
Sequence of Caspase-8 (Q14790 385-479 limits assumed): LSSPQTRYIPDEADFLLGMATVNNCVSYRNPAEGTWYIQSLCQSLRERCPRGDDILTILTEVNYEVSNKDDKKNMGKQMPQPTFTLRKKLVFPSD

Take `COc1ccc(CN2C(=O)C(=O)c3cc(S(=O)(=O)N4CCC[C@H]4COc4cccnc4)ccc32)cc1` [1-[(4-methoxyphenyl)methyl]-5-{[(2S)-2-[(pyridin-3-yloxy)methyl]pyrrolidine-1-]sulfonyl}-2,3-dihydro-1H-indole-2,3-dione]: on Caspase-3, the affinity, expressed as Ki, was 4.4 nM.

The compound `CCC(C)[C@H](NC(C)=O)C(=O)N[C@@H](CCC(=O)O)C(=O)N[C@H](C(=O)N[C@H](C=O)CC(=O)O)C(C)O` (stereo partly drawn) [(4S)-4-{[(1S)-1-{[(2S)-1-carboxy-3-oxopropan-2-yl]carbamoyl}-2-hydroxypropyl]carbamoyl}-4-[(2S)-2-acetamido-3-methylpentanamido]butanoic acid] (Ac-[Ile(3ξ)]E[Thr(3ξ)]D-aldehyde) displayed an IC50 against Caspase-8 of 4.7 nM.
